Test results reported in the NIST ThermoML archive (doi:10.1016/j.jct.2011.09.007).
Numbers after ± are expanded uncertainties.

What was measured:
[1] = refractive index (Na D-line) (dimensionless); settings: 298.15 K; 101.33 kPa; Liquid; Standard Abbe refractometry
[2] = Liquid; for mass density: 298.15 K, 101.33 kPa, Vibrating tube method; for vapor or sublimation pressure: Ebulliometric method (Recirculating still)

In the case of CC(C)CC(C)(C)C [2,2,4-trimethylpentane], the refractive index [1] is reported as 1.38894 ± 0.00072, the mass density [2] is reported as 687.79 ± 0.2 kg/m3 and the “vapor or sublimation pressure” value ([2]; 330 K) is reported as 25.47 ± 0.16 kPa. The “vapor or sublimation pressure” value ([2]; 340 K) was 36.64 ± 0.2 kPa.

For CC(C)C(=O)C(C)C [2,4-dimethyl-3-pentanone], the refractive index [1] was 1.3974 ± 0.0007, the mass density [2] was 798.8 ± 0.21 kg/m3 and the “vapor or sublimation pressure” value ([2]; 330 K) was 8.87 ± 0.04 kPa. The “vapor or sublimation pressure” value ([2]; 330.04 K) was 8.87 ± 0.04 kPa, the “vapor or sublimation pressure” value ([2]; 331.02 K) was 9.28 ± 0.04 kPa and the “vapor or sublimation pressure” value ([2]; 337.07 K) was 12.02 ± 0.05 kPa. For the same compound, the “vapor or sublimation pressure” value ([2]; 340 K) was 13.55 ± 0.06 kPa, the “vapor or sublimation pressure” value ([2]; 340.05 K) was 13.58 ± 0.06 kPa and the “vapor or sublimation pressure” value ([2]; 340.57 K) was 13.89 ± 0.06 kPa. The “vapor or sublimation pressure” value ([2]; 343.73 K) was 15.78 ± 0.06 kPa, the “vapor or sublimation pressure” value ([2]; 347.76 K) was 18.48 ± 0.07 kPa and the “vapor or sublimation pressure” value ([2]; 351.12 K) was 21.02 ± 0.08 kPa. For the same compound, the “vapor or sublimation pressure” value ([2]; 365.8 K) was 35.36 ± 0.11 kPa, the “vapor or sublimation pressure” value ([2]; 371.23 K) was 42.49 ± 0.14 kPa and the “vapor or sublimation pressure” value ([2]; 373.22 K) was 45.36 ± 0.15 kPa. The “vapor or sublimation pressure” value ([2]; 375.59 K) was 49 ± 0.16 kPa, the “vapor or sublimation pressure” value ([2]; 378.26 K) was 53.37 ± 0.18 kPa and the “vapor or sublimation pressure” value ([2]; 381.01 K) was 58.22 ± 0.19 kPa. For the same compound, the “vapor or sublimation pressure” value ([2]; 382.94 K) was 61.82 ± 0.2 kPa and the “vapor or sublimation pressure” value ([2]; 384.94 K) was 65.74 ± 0.21 kPa.

With CC(C)O [propan-2-ol] the refractive index [1] was 1.37504 ± 0.00072, the mass density [2] was 780.91 ± 0.16 kg/m3 and the “vapor or sublimation pressure” value ([2]; 330 K) was 33.25 ± 0.23 kPa. The “vapor or sublimation pressure” value ([2]; 340 K) was 52.97 ± 0.29 kPa.
